In patent US20060079453A1, “Hla binding peptides and their uses” (priority 2002, published 2006):
No end group written: not given here.

How the values were obtained:
Assay in all cases: biochemical
Type in all cases: binding
[1] = molecular target: HLA-DR DRB1*0101 (DR1) (Homo sapiens, UniProt P01903+P01911, A100R/D57E/F55L/F60I/F76Y/I96L/L162R/M171V/P40L/Q125E/R42F/V115G/Y59C); details: DRB1 *0101
[2] = molecular target: HLA-DR DRB1*0301 (DR3) (Homo sapiens, UniProt P01903+P01911, A100K/A102G/A103R/A169T/F55Y/I96L/K41T/L162R/M171V/P40S/Q125H/Q178H/Q39Y/R42S/S66N/T106N/T262R/W38E/Y61H)
Chain of HLA-DR DRB1*0301 (DR3) (P01903 26-254 limits assumed, other chains not shown): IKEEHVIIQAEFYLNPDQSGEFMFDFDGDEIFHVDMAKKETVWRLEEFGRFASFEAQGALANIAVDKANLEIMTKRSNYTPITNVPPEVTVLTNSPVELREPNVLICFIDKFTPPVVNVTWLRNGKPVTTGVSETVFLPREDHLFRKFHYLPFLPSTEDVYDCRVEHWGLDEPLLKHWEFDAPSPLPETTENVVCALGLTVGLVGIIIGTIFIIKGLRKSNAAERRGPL

[3] = molecular target: HLA-DR DRB1*0802 (DR8) (Homo sapiens, UniProt P01903+P01911, A100R/A103L/A169T/F76Y/H45Y/I96F/K41T/L162R/M171V/P40S/Q125H/Q178H/Q39Y/Q99D/R218S/R42G/S66Y/V115G/W38E)
[4] = molecular target: HLA-DR DRB1*0901 (DR9) (Homo sapiens, UniProt P01903+P01911, A100R/A103E/D57H/D86V/F55Y/F60I/F76Y/I96F/K127E/L162R/M171V/P40D/Q125H/Q99R/R33Q/R42F/S133A/S66N/T210M/V115G/W38K/Y107V/Y59G/Y89S); details: DRB1 *0901
[5] = molecular target: HLA-DR DRB1*1302 (DR13) (Homo sapiens, UniProt P01903+P01911, A100E/A169T/K41T/L162R/M171V/P40S/Q125H/Q178H/Q39Y/Q99D/R42S/S66N/T262R/V115G/W38E/Y61H); details: DRBI *1302
Chain of HLA-DR DRB1*1302 (DR13) (P01903 26-254 limits assumed, other chains not shown): as above

[6] = molecular target: HLA-DR DRB3*0101 (DR52) (Homo sapiens, UniProt P01903+P79483)
[7] = molecular target: HLA-DR DRB4*0101 (DR53) (Homo sapiens, UniProt P01903+P13762, G164S); details: DRB4 *0101
[8] = molecular target: HLA-DR DRB5*0101 (DR51) (Homo sapiens, UniProt P01903+Q30154); details: DRB5 *0101
[9] = molecular target: HLA-DR DRB1*0401 (DR4) (Homo sapiens, UniProt P01903+P01911, A100K/A169T/F76Y/I96L/K127E/L162R/M171V/N62H/P40V/Q125Y/R42H/S133A/S149N/S66Y/V115G/V209L/W38E); details: DRB1 *0401
[10] = molecular target: HLA-DR DRB1*0701 (DR7) (Homo sapiens, UniProt P01903+P01911, A100R/A102G/A103Q/D57E/D86V/E43K/F76Y/K127E/L162R/M171V/P40G/Q125H/Q99D/R33Q/R42Y/R54Q/S133A/S66F/T210M/V115G/Y107V/Y59L/Y89S); details: DRB1 *0701
[11] = molecular target: HLA-DR DRB1*1501 (DR15) (Homo sapiens, UniProt P01903+P01911); details: DRBI *1501
[12] = molecular target: HLA-DR DRB1*1101 (DR11) (Homo sapiens, UniProt P01903+P01911, A100R/A169T/A87E/I96F/K41T/L162R/M171V/P40S/Q125H/Q178H/Q39Y/Q99D/R42S/S66Y/T262R/V115G/W38E); details: DRB1 *1101
Chain of HLA-DR DRB1*1101 (DR11) (P01903 26-254 limits assumed, other chains not shown): as above

Row | Compound | IC50 [1] [nM] | IC50 [2] [µM] | IC50 [3] [nM] | IC50 [4] [nM] | IC50 [5] [nM] | IC50 [6] [µM] | IC50 [7] [nM] | IC50 [8] [nM] | IC50 [9] [nM] | IC50 [10] [µM] | IC50 [11] [nM] | IC50 [12] [nM]
1 | CC(C)C[C@H](NC(=O)[C@H](Cc1ccccc1)NC(=O)CNC(=O)[C@H](CC(C)C)NC(=O)[C@H](CO)NC(=O)[C@H](CC(C)C)NC(=O)[C@H](CO)NC(=O)[C@H](C)NC(=O)[C@H](C)NC(=O)[C@H](CCCNC(=N)N)NC(=O)[C@H](C)NC(=O)[C@H](CC(C)C)NC(=O)[C@H](CC(C)C)NC(=O)[C@H](CC(C)C)NC(=O)[C@@H]1CCCN1)C(=O)O | 10 | > 81.8 | 37 | 58 | 12 | > 9.74 | 52 | 151 | – | – | – | –
2 | HPLYNMSLLKHQSLR | 232 | 13 | 382 | 199 | 546 | > 14.9 | 8.4 | 219 | 499 | 1.28 | 472 | –
3 | CC[C@H](C)[C@H](NC(=O)[C@@H](NC(=O)[C@@H](N)CO)C(C)C)C(=O)N[C@@H](CC(C)C)C(=O)N[C@@H](CC(C)C)C(=O)NCC(=O)N[C@@H](CCCNC(=N)N)C(=O)N[C@@H](Cc1c[nH]cn1)C(=O)N[C@@H](CO)C(=O)N[C@@H](CC(C)C)C(=O)N[C@@H](Cc1ccccc1)C(=O)N[C@@H](Cc1c[nH]cn1)C(=O)N1CCC[C@H]1C(=O)N[C@@H](CCC(=O)O)C(=O)N[C@@H](CC(=O)O)C(=O)O [SVILLGRHSLFHPED] | 717 | 1.4 | 500 | 5220 | 96 | 13 | 4410 | 16100 | 12600 | – | – | 96
4 | TSITSLYQLENYTG | – | 96.7 | 14600 | 46300 | > 17100 | 92.3 | 1660 | 16100 | 1630 | 8.37 | – | 1010
5 | CC(C)C[C@H](NC(=O)[C@H](CCC(=O)O)NC(=O)[C@H](CCCCN)NC(=O)[C@H](C)NC(=O)[C@H](CC(C)C)NC(=O)[C@@H](NC(=O)[C@H](CO)NC(=O)[C@H](CCCNC(=N)N)NC(=O)[C@H](CC(=O)O)NC(=O)[C@H](CC(C)C)NC(=O)[C@H](Cc1c[nH]c2ccccc12)NC(=O)[C@H](Cc1ccccc1)NC(=O)[C@H](Cc1ccccc1)NC(=O)[C@H](CC(C)C)NC(=O)[C@@H](N)CC(C)C)C(C)C)C(=O)O | 2.9 | 0.0063 | 163 | 518 | 24 | 0.086 | 7.5 | – | 2.6 | – | 34 | –
6 | CC[C@H](C)[C@H](NC(=O)CNC(=O)[C@H](Cc1ccc(O)cc1)NC(=O)[C@H](CC(C)C)NC(=O)[C@H](CO)NC(=O)[C@H](CC(C)C)NC(=O)[C@H](CC(C)C)NC(=O)[C@H](CO)NC(=O)[C@@H](N)CC(C)C)C(=O)N[C@@H](Cc1c[nH]cn1)C(=O)N[C@@H](CCCCN)C(=O)N[C@@H](CCC(N)=O)C(=O)N[C@@H](CCCCN)C(=O)N[C@@H](CCC(=O)O)C(=O)N[C@@H](CCCCN)C(=O)O | 656 | > 81.8 | 1640 | 4960 | > 35000 | > 15 | 772 | 3.4 | 4440 | > 35.7 | 58 | –
7 | KLKLYTGEATRTGDR | 178 | 118 | 2010 | > 78900 | 841 | 5.3 | 14800 | – | 15 | 8.23 | 18 | –
8 | CC[C@H](C)[C@H](NC(=O)[C@H](CCC(N)=O)NC(=O)[C@@H](N)CCCNC(=N)N)C(=O)N[C@@H](Cc1ccc(O)cc1)C(=O)N[C@H](C(=O)N[C@@H](C)C(=O)N[C@@H](C)C(=O)N[C@@H](Cc1ccccc1)C(=O)N[C@H](C(=O)N[C@H](C(=O)N[C@@H](CCC(N)=O)C(=O)N[C@@H](C)C(=O)N[C@@H](C)C(=O)N[C@@H](C)C(=O)N[C@@H](CCC(=O)O)C(=O)O)C(C)C)[C@@H](C)O)C(C)C | 3.7 | 28.3 | 36 | 91 | 524 | 6.81 | 47 | – | 1.2 | – | – | 35
9 | CC[C@H](C)[C@H](NC(=O)[C@H](CCCNC(=N)N)NC(=O)[C@@H](N)[C@@H](C)O)C(=O)N[C@@H](Cc1ccc(O)cc1)C(=O)N[C@@H](CC(N)=O)C(=O)N[C@H](C(=O)N[C@H](C(=O)NCC(=O)N[C@H](C(=O)N[C@@H](CC(C)C)C(=O)N[C@@H](CCCNC(=N)N)C(=O)NCC(=O)N[C@@H](C)C(=O)N[C@H](C(=O)N[C@@H](CCC(=O)O)C(=O)O)C(C)C)[C@@H](C)O)[C@@H](C)CC)C(C)C | 14 | 33.3 | 70 | 2900 | 1460 | 17.5 | 447 | 32 | 6.3 | 4.81 | – | 45
10 | CSCC[C@H](NC(=O)CNC(=O)CNC(=O)[C@H](CCCNC(=N)N)NC(=O)[C@@H](NC(=O)[C@H](CCC(N)=O)NC(=O)[C@H](C)NC(=O)[C@@H](NC(=O)[C@@H](NC(=O)[C@H](CC(C)C)NC(=O)[C@H](Cc1c[nH]cn1)NC(=O)[C@H](Cc1ccc(O)cc1)NC(=O)[C@H](CCCCN)NC(=O)[C@H](Cc1ccccc1)NC(=O)[C@@H](N)CCSC)[C@@H](C)O)C(C)C)C(C)C)C(=O)O | 16 | 29 | 70 | 266 | 1620 | 3.65 | – | 5.8 | 18 | 0.072 | 1200 | –
11 | EDFFKLERDMKINCS | 2710 | 0.468 | 1440 | > 52300 | 3190 | 4.04 | 7890 | 3490 | 226 | 8.55 | > 3490 | –
12 | CC[C@H](C)[C@H](NC(=O)[C@H](CO)NC(=O)[C@@H](NC(=O)CN)C(C)C)C(=O)N[C@@H](Cc1c[nH]c2ccccc12)C(=O)N[C@@H](CC(N)=O)C(=O)N1CCC[C@H]1C(=O)N[C@H](C(=O)N[C@@H](CC(C)C)C(=O)N[C@@H](CC(C)C)C(=O)N[C@@H](Cc1c[nH]c2ccccc12)C(=O)N[C@@H](CCC(N)=O)C(=O)N1CCC[C@H]1C(=O)N[C@H](C(=O)N1CCC[C@H]1C(=O)O)[C@@H](C)CC)[C@@H](C)CC | 44 | 56.3 | 11000 | 3980 | – | 4.43 | 492 | 523 | – | 4.99 | 5 | –
13 | CC(C)C[C@H](NC(=O)[C@@H](NC(=O)[C@H](CCC(=O)O)NC(=O)[C@H](C)NC(=O)[C@H](C)NC(=O)[C@H](C)NC(=O)[C@H](CCC(N)=O)NC(=O)[C@@H](NC(=O)[C@@H](NC(=O)[C@H](Cc1ccccc1)NC(=O)[C@H](C)NC(=O)[C@H](C)NC(=O)[C@@H](N)C(C)C)[C@@H](C)O)C(C)C)[C@@H](C)O)C(=O)N[C@@H](CO)C(=O)N[C@@H](CCC(=O)O)C(=O)O | 14 | > 75 | 1420 | 127 | – | 2.12 | 464 | 378 | 58 | 0.793 | 18200 | –
